Laboratory results taken from patent publication US9096591B2, “Tetracyclic compounds” (Medivation Technologies, Inc., priority 2007, dated 2015).
Like-named read-outs stand apart in the source and are kept apart here.

How the values were obtained:
[1] = molecular target: T1, human recombinant serotonin (5-Hydroxytryptamine) 5-HT2C receptor (Homo sapiens, UniProt P28335); assay: Serotonin 5-HT2C radioligand binding ([3H]Mesulergine); set-up: Inhibition of ligand binding, Ser. 5-HT2C: concentration or dose not given beside the values; conditions: percent inhibition of specific binding
T1 construct: expressed in transfected cells; host or cells: CHO-K1 cells
T1 sequence (P28335 33-458): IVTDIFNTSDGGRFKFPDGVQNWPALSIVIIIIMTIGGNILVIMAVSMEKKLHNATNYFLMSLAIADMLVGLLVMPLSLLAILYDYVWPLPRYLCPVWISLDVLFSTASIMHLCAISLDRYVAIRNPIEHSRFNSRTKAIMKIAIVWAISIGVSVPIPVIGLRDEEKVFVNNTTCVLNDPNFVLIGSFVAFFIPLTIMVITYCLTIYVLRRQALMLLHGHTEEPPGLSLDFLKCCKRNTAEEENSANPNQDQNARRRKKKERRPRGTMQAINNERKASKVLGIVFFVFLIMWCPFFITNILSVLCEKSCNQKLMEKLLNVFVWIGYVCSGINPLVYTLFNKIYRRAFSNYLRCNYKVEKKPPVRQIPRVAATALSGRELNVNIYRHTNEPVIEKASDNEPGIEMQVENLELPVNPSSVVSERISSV
Protocol: Compounds of the invention were incubated with 1 nM [^3H]Mesulergine for 60 minutes at 25° C. Non-specific binding was estimated in the presence of 1 μM Mianserin. Receptor proteins were filtered and washed, the filters were then counted to determine [^3H]Mesulergine specifically bound. […] Biochemical assay results are presented as the percent inhibition of specific binding in Table 6.

[2] = molecular target: T2, human recombinant histamine H2 receptor (Homo sapiens, UniProt P25021); assay: Histamine H2 radioligand binding ([125I]Aminopotentidine); conditions: for inhibition at 0.1 µM: 0.1 μM compound; for inhibition at 0.3 µM: 0.3 μM compound
T2 construct: expressed in transfected cells; host or cells: CHO-K1 cells
T2 sequence (P25021 whole entry): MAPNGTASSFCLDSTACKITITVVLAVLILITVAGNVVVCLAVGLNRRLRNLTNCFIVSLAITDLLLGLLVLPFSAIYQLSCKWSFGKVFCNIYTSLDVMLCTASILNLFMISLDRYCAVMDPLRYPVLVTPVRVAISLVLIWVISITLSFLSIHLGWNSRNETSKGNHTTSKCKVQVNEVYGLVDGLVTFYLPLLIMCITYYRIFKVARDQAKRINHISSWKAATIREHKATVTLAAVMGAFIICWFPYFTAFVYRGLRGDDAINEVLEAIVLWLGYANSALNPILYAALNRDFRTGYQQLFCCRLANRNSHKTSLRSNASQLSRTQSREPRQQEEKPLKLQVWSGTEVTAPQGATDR
In short: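 Test compounds were assessed for their ability to displace radioligand from the human recombinant histamine H2 receptor. Non-specific binding was determined in the presence of 3 μM Tiotidine, and results were expressed as percent inhibition of specific binding, with 1% DMSO serving as the vehicle.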

[3] = molecular target: T3, Serotonin (5-Hydroxytryptamine) 5-HT7 (Homo sapiens, UniProt P34969); assay: Serotonin 5-HT7 radioligand binding ([3H]LSD); set-up: Inhibition of ligand binding, Ser. 5-HT7: concentration or dose not given beside the values; conditions: percent inhibition of specific binding
T3 construct: expressed in transfected cells; host or cells: CHO cells
T3 sequence (P34969 whole entry): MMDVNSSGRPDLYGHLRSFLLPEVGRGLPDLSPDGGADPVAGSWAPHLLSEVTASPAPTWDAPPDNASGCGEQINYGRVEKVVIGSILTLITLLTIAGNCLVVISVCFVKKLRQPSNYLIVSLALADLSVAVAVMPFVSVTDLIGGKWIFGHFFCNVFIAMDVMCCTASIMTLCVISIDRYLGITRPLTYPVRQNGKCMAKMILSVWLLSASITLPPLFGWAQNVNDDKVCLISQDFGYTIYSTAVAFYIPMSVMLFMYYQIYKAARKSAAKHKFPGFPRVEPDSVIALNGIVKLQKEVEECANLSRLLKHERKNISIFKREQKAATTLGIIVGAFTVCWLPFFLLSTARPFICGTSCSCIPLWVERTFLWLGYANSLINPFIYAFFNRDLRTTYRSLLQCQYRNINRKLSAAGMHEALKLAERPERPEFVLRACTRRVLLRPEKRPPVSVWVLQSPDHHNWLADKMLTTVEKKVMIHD
Protocol: Lysergic acid diethylamide (LSD) for 2 hours at 25° C. […] Receptor proteins were filtered and washed, the filters were then counted to determine [^3H]LSD specifically bound. […] Biochemical assay results are presented as the percent inhibition of specific binding in Table 6.

[4] = molecular target: T4, human recombinant adrenergic α2A receptor (Homo sapiens, UniProt P08913); assay: Adrenergic α2A radioligand binding ([3H]MK-912); set-up: Inhibition of ligand binding, Adren. alpha2A: concentration or dose not given beside the values; conditions: percent inhibition of specific binding
T4 construct: expressed in transfected cells; host or cells: insect Sf9 cells
T4 sequence (P08913 1-465): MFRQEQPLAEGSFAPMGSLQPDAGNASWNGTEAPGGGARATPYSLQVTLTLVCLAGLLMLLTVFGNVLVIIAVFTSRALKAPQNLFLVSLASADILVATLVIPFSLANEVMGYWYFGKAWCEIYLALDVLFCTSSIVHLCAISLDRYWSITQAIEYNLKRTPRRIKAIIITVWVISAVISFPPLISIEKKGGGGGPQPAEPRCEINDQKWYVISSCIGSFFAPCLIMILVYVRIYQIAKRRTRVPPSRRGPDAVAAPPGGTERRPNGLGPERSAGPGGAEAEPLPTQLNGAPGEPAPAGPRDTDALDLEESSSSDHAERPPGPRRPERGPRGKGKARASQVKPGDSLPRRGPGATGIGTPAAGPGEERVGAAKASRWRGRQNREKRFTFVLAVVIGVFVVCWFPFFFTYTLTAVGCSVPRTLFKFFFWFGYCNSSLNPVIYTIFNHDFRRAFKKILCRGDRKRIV
Protocol: To evaluate in radioligand binding assays the activity of compounds of the invention, human recombinant adrenergic α2A receptor expressed in insect Sf9 cells (Uhlen S et al. J Pharmacol Exp Ther. 271:1558, 1994) in a modified Tris-HCl buffer (50 mM Tris-HCl, pH 7.4, 12.5 mM MgCl2, 2 mM EDTA) was used. Compounds of invention were incubated with 1 nM [^3H]MK-912 for 60 minutes at 25° C. MK912 is (2S-trans)-1,3,4,5′,6,6′,7,12b-octahydro-1′,3′-dimethyl-spiro[2H-benzofuro[2,3-a]quinolizine-2,4′(1′H)-pyrimidin]-2′(3′H)-one hydrochloride Non-specific binding was estimated in the presence of 10 μM WB-4101 (2-(2,6-Dimethoxyphenoxyethyl)aminomethyl-1,4-benzodioxane hydrochloride). Receptor proteins were filtered and washed, the filters were then counted to determine [^3H]MK-912 specifically bound. […] Biochemical assay results are presented as the percent inhibition of specific binding in Table 6.

[5] = 0.1 nM [125I]Aminopotentidine, read-out: Histamine Binding H2, percent inhibition of specific binding
[6] = 1 μM compound, 0.1 nM [125I]Aminopotentidine, read-out: Histamine Binding H2, percent inhibition of specific binding
[7] = percent inhibition of specific binding, screened at 1 μM, read-out: Inhibition of ligand binding, Hist. H2

Cc1ccc(CCn2c3c(c4ccccc42)CN(C)CC3)cc1 [Compound 1, 2,3,4,5-tetrahydro-2-methyl-5-(4-methylphenethyl)-1H-pyrido[4,3-b]indole]
Inhibition of ligand binding, Ser. 5-HT2C [1]: 95% | inhibition at 0.1 µM [2, 5]: 33% | inhibition at 0.3 µM [2, 5]: 57% | inhibition at 1 µM [2, 6]: 82% | inhibition at 1 µM [2, 7]: 82% | Inhibition of ligand binding, Ser. 5-HT7 [3]: 98% | Inhibition of ligand binding, Adren. alpha2A [4]: 99%

CCN1CCc2c(c3ccccc3n2CCc2ccc(C)cc2)C1 [Compound 3, 2-ethyl-2,3,4,5-tetrahydro-5-(4-methylphenethyl)-1H-pyrido[4,3-b]indole]
Inhibition of ligand binding, Ser. 5-HT2C [1]: 82% | inhibition at 1 µM [2, 6]: 51% | inhibition at 1 µM [2, 7]: 51% | Inhibition of ligand binding, Ser. 5-HT7 [3]: 81% | Inhibition of ligand binding, Adren. alpha2A [4]: 86%

CCN1CCc2c(c3ccccc3n2CCc2ccccc2)C1 [Compound 4, 2-ethyl-2,3,4,5-tetrahydro-5-phenethyl-1H-pyrido[4,3-b]indole]
Inhibition of ligand binding, Ser. 5-HT2C [1]: 94% | inhibition at 0.3 µM [2, 5]: 34% | inhibition at 1 µM [2, 6]: 51% | inhibition at 1 µM [2, 7]: 51% | Inhibition of ligand binding, Ser. 5-HT7 [3]: 88% | Inhibition of ligand binding, Adren. alpha2A [4]: 82%

CCN1CCc2c(c3ccccc3n2CCc2ccncc2)C1 [Compound 5]
Inhibition of ligand binding, Ser. 5-HT2C [1]: 9% | inhibition at 1 µM [2, 6]: 2% | inhibition at 1 µM [2, 7]: 2% | Inhibition of ligand binding, Ser. 5-HT7 [3]: 37% | Inhibition of ligand binding, Adren. alpha2A [4]: 20%

CCN1CCc2c(c3ccccc3n2CCc2ccccn2)C1 [Compound 6]
Inhibition of ligand binding, Ser. 5-HT2C [1]: 34% | inhibition at 1 µM [2, 6]: -3% | inhibition at 1 µM [2, 7]: -3% | Inhibition of ligand binding, Ser. 5-HT7 [3]: 39% | Inhibition of ligand binding, Adren. alpha2A [4]: 20%

CN1CCc2c(c3ccccc3n2CCc2ccncc2)C1 [Compound 10, 2,3,4,5-tetrahydro-2-methyl-5-(2-(pyridin-4-yl)ethyl)-1H-pyrido[4,3-b]indole]
Inhibition of ligand binding, Ser. 5-HT2C [1]: 53% | inhibition at 1 µM [2, 6]: 12% | inhibition at 1 µM [2, 7]: 12% | Inhibition of ligand binding, Ser. 5-HT7 [3]: 73% | Inhibition of ligand binding, Adren. alpha2A [4]: 33%

CCN1CCc2c(c3ccccc3n2Cc2ccccc2)C1 [Compound 16, 5-benzyl-2-ethyl-2,3,4,5-tetrahydro-1H-pyrido[4,3-b]indole]
Inhibition of ligand binding, Ser. 5-HT2C [1]: 5% | inhibition at 1 µM [2, 6]: 3% | inhibition at 1 µM [2, 7]: 3% | Inhibition of ligand binding, Ser. 5-HT7 [3]: 14% | Inhibition of ligand binding, Adren. alpha2A [4]: 10%

Cc1ccc(Cn2c3c(c4ccccc42)CN(C)CC3)cn1 [Compound 17, 2,3,4,5-tetrahydro-2-methyl-5-((6-methylpyridin-3-yl)methyl)-1H-pyrido[4,3-b]indole]
Inhibition of ligand binding, Ser. 5-HT2C [1]: 8% | inhibition at 1 µM [2, 6]: -2% | inhibition at 1 µM [2, 7]: -2% | Inhibition of ligand binding, Ser. 5-HT7 [3]: 7% | Inhibition of ligand binding, Adren. alpha2A [4]: 56%

CCOC(=O)N1CCc2c(c3cc(Br)ccc3n2CCc2ccc(C)nc2)C1 [Compound 18, ethyl 8-bromo-3,4-dihydro-5-(2-(6-methylpyridin-3-yl)ethyl)-1H-pyrido[4,3-b]indole-2(5H)-carboxylate]
Inhibition of ligand binding, Ser. 5-HT2C [1]: −14% | inhibition at 1 µM [2, 6]: 1% | inhibition at 1 µM [2, 7]: 1% | Inhibition of ligand binding, Ser. 5-HT7 [3]: 10% | Inhibition of ligand binding, Adren. alpha2A [4]: −10%

CCOC(=O)N1CCc2c(c3cc(-c4cccnc4)ccc3n2CCc2ccc(C)nc2)C1 [Compound 19, ethyl 3,4-dihydro-5-(2-(6-methylpyridin-3-yl)ethyl)-8-(pyridin-3-yl)-1H-pyrido[4,3-b]indole-2(5H)-carboxylate]
Inhibition of ligand binding, Ser. 5-HT2C [1]: −17% | inhibition at 1 µM [2, 6]: 10% | inhibition at 1 µM [2, 7]: 10% | Inhibition of ligand binding, Ser. 5-HT7 [3]: 12% | Inhibition of ligand binding, Adren. alpha2A [4]: −8%

Cc1ccc2c(c1)c1c(n2CCc2ccncc2)CCN(C)C1 [Compound 22, 2,3,4,5-tetrahydro-2,8-dimethyl-5-(2-(pyridin-4-yl)ethyl)-1H-pyrido[4,3-b]indole]
Inhibition of ligand binding, Ser. 5-HT2C [1]: 87% | inhibition at 0.3 µM [2, 5]: 29% | inhibition at 1 µM [2, 6]: 49% | inhibition at 1 µM [2, 7]: 53% | Inhibition of ligand binding, Ser. 5-HT7 [3]: 99% | Inhibition of ligand binding, Adren. alpha2A [4]: 72%

CCN1CCc2c(c3cc(C)ccc3n2CCc2ccccn2)C1 [Compound 23, 2-ethyl-2,3,4,5-tetrahydro-8-methyl-5-(2-(pyridin-2-yl)ethyl)-1H-pyrido[4,3-b]indole]
Inhibition of ligand binding, Ser. 5-HT2C [1]: 53% | inhibition at 1 µM [2, 6]: 28% | inhibition at 1 µM [2, 7]: 28% | Inhibition of ligand binding, Ser. 5-HT7 [3]: 94% | Inhibition of ligand binding, Adren. alpha2A [4]: 57%

CCOC(=O)N1CCc2c(c3cc(C)ccc3n2CCc2ccccc2)C1 [Compound 24, ethyl 3,4-dihydro-8-methyl-5-phenethyl-1H-pyrido[4,3-b]indole-2(5H)-carboxylate]
Inhibition of ligand binding, Ser. 5-HT2C [1]: 1% | inhibition at 1 µM [2, 6]: 13% | inhibition at 1 µM [2, 7]: 13% | Inhibition of ligand binding, Ser. 5-HT7 [3]: −2% | Inhibition of ligand binding, Adren. alpha2A [4]: 7%

CN1CCc2c(c3cc(Cl)ccc3n2CCc2ccccn2)C1 [Compound 30, 8-chloro-2,3,4,5-tetrahydro-2-methyl-5-(2-(pyridin-2-yl)ethyl)-1H-pyrido[4,3-b]indole]
Inhibition of ligand binding, Ser. 5-HT2C [1]: 90% | inhibition at 1 µM [2, 6]: 34% | inhibition at 1 µM [2, 7]: 34% | Inhibition of ligand binding, Ser. 5-HT7 [3]: 99% | Inhibition of ligand binding, Adren. alpha2A [4]: 84%

CCN1CCc2c(c3cc(C)ccc3n2CCc2ccc(C)nc2)C1 [Compound 31, 2-ethyl-2,3,4,5-tetrahydro-8-methyl-5-(2-(6-methylpyridin-3-yl)ethyl)-1H-pyrido[4,3-b]indole]
Inhibition of ligand binding, Ser. 5-HT2C [1]: 39% | inhibition at 1 µM [2, 6]: 34% | inhibition at 1 µM [2, 7]: 34% | Inhibition of ligand binding, Ser. 5-HT7 [3]: 85% | Inhibition of ligand binding, Adren. alpha2A [4]: 66%

Cc1ccc2c(c1)c1c(n2CCc2ccc(Cl)cc2)CCN(C)C1 [Compound 32, 5-(4-chlorophenethyl)-2,3,4,5-tetrahydro-2,8-dimethyl-1H-pyrido[4,3-b]indole]
Inhibition of ligand binding, Ser. 5-HT2C [1]: 100% | inhibition at 0.3 µM [2, 5]: 99% | inhibition at 1 µM [2, 6]: 101% | inhibition at 1 µM [2, 7]: 101% | Inhibition of ligand binding, Ser. 5-HT7 [3]: 101% | Inhibition of ligand binding, Adren. alpha2A [4]: 97%

Cc1ccc2c(c1)c1c(n2CCc2ccc(F)cc2)CCN(C)C1 [Compound 33, 5-(4-fluorophenethyl)-2,3,4,5-tetrahydro-2,8-dimethyl-1H-pyrido[4,3-b]indole]
Inhibition of ligand binding, Ser. 5-HT2C [1]: 95% | inhibition at 0.1 µM [2, 5]: 41% | inhibition at 1 µM [2, 6]: 91% | inhibition at 1 µM [2, 7]: 91% | Inhibition of ligand binding, Ser. 5-HT7 [3]: 91% | Inhibition of ligand binding, Adren. alpha2A [4]: 98%
